# According to patent US20240318143A1, “POST-PROCESSING OF BIOLOGICAL SCAFFOLDS” (Lung Biotechnology PBC, priority 2023, published 2024):
# Test system: PAECs
# Test: PAEC attachment and morphology after 24 hours on discs surface modified with peptides (FIGS. 8A-10G, FIJI analysis)
# Type: cell-based
# Conditions: 24 hours after seeding, surface modification at 2 μmol/cm^2 and 0.2 μmol/cm^2 (Tests 1-3)
# Experimental: For the experiments in FIGS. 7A-7S, 18 multi-wells were washed in 70% RA. The multi-wells were split into 6 groups of surface modification, which were P/G/A/B/F, PHSRNKRGD (SEQ ID NO: 9) (referred to as “PHK” in the figures), AG73, GFOGER (SEQ ID NO: 10), BM-Binder, and FN-Binder. Surface modification was conducted with the peptide solutions in Table 4. Peptides were prepared at 2 μmol/cm^2 concentrations for surface modification, but the actual concentration was adjusted for the thiol concentration. Following surface modification, wells were seeded with PAECs at a concentration of 625000 per cm^2. 24 hours after seeding, the wells were fix stained and imaged to quantify cell morphology. Model surface area was 10.1 cm^2.
# FIGS. 8A-10G provide data on experiments to compare cell seeding and proliferation on surfaces with single peptide or combination peptide modification at different concentrations, 2 μmol/cm^2 and 0.2 μmol/cm^2. The solutions used for peptide modification had the actual peptide concentrations noted in Table 5.
# (§1) FIGS. 8A-8G illustrate PAEC morphology after 24 hours on discs surface modified with various peptides at 2 μmol/cm^2 concentration according to Test 1. FIG. 8A are stained disk scans of PAECs cultured on 6 different surface modification peptides. FIGS. 8B-8G are graphs of FIJI analysis of circularity frequency distribution.
# as §1, with “9A-9G” for “8A-8G”, “concentration adjusted to the volume used in the PGABF′ condition” for “concentration”, “2.” for “1.”, “9A” for “8A”, “9B-9G” for “8B-8G”
# FIGS. 10A-10G illustrate PAEC morphology after 24 hours on discs surface modified with various peptides at 0.2 μmol/cm^2 concentration according to Test 3. FIG. 10A are stained disk scans of PAECs cultured on 6 different surface modification peptides. […] FIJI analysis is a method of quantifying stained disk scans. […]
row,Sequence,Cell attachment and morphology
1,"GCREKKRKRLQVQLSIRT [A, laminin-derived peptide recognized by syndecans]","some cells that were elongated but that did not have full stretching as seen in other test conditions, and an increase in rounder cells"
2,GCREISAFLGIPFAEPPMGPRRFLPPEPKKP [B],little cell attachment and those that were attached were round with little to no elongation
3,GCREKKTLQPVYEYMVGV [F],little cell attachment and those that were attached were round with little to no elongation
